Target: T1, human Kv7.2+Kv7.3 channels (Homo sapiens, UniProt O43525+O43526)
T1 construct: expressed in transfected cells; host or cells: HEK293
Assay: Patch-clamp on HEK293 cell lines stably expressing human Kv7.2+Kv7.3 channels
Type: cell-based
Details: current relative to baseline current defined as 100%, HEK293 cells, test concentration not given
Text: The effect obtained by these channel activators is described as a percentage increase in baseline current at a given concentration. The baseline current is defined as 100%, and an increase in current is expressed relative to this, i.e. an increase from 1 nA to 1.2 nA is reported as 120%.

CCN(CC)c1nc2ccc(O)cc2c(=O)n1NC(=O)Cc1cc(F)cc(F)c1 [Compound F1, N-(2-Diethylamino-6-hydroxy-4-oxo-4H-quinazolin-3-yl)-2-(3,5-difluoro-phenyl)-acetamide]
IK (%) at −30 mV, 1 s: 110%

CCN(CC)c1nc2ccccc2c(=O)n1NC(=O)Cc1cc(F)cc(F)c1 [Compound D2, N-(2-Diethylamino-4-oxo-4H-quinazolin-3-yl)-2-(3,5-difluoro-phenyl)-acetamide]
IK (%) at −30 mV, 1 s: 290%

CCN(CC)c1nc2ccccc2c(=O)n1NC(=O)Cc1ccc(Cl)cc1 [Compound C3, 2-(4-Chloro-phenyl)-N-(2-diethylamino-4-oxo-4H-quinazolin-3-yl)-acetamide]
IK (%) at −30 mV, 1 s: 144%

O=C(Cc1ccc(C(F)(F)F)c(F)c1)Nn1c(N2CCCC2)nc2ccccc2c1=O [Compound C11, 2-(3-Fluoro-4-trifluoromethyl-phenyl)-N-(4-oxo-2-pyrrolidin-1-yl-4H-quinazolin-3-yl)-acetamide]
IK (%) at −30 mV, 1 s: 153%

CCN(CC)c1nc2ccc(F)cc2c(=O)n1NC(=O)Cc1cc(F)cc(F)c1 [Compound C19, N-(2-Diethylamino-6-fluoro-4-oxo-4H-quinazolin-3-yl)-2-(3,5-difluoro-phenyl)-acetamide]
IK (%) at −30 mV, 1 s: 215%

CC(C(=O)Nn1c(N(C)C)nc2cc(C(F)(F)F)ccc2c1=O)c1cc(F)cc(F)c1 (stereo not shown) [Compound C5, 2-(3,5-Difluoro-phenyl)-N-(2-dimethylamino-4-oxo-7-trifluoromethyl-4H-quinazolin-3yl)-propionamide]
IK (%) at −30 mV, 1 s: 143%

O=C(Cc1cc(F)cc(F)c1)Nn1c(N2CCCC2)nc2ccccc2c1=O [Compound C1, 2-(3,5-Difluoro-phenyl)-N-(4-oxo-2-pyrrolidin-1-yl-4H-quinazolin-3-yl)-acetamide]
IK (%) at −30 mV, 1 s: 150%
